15 compounds from ChEMBL document CHEMBL4417631, “Oral peptide inhibitors of interleukin-23 receptor and their use to treat inflammatory bowel diseases” (2017) can be followed below.

Where a SMILES comes first, the peptide text is derived from it.

This experiment concerns the target T1, Interleukin-23 receptor (Homo sapiens, UniProt Q5VWK5).
T1 sequence (Q5VWK5 whole entry): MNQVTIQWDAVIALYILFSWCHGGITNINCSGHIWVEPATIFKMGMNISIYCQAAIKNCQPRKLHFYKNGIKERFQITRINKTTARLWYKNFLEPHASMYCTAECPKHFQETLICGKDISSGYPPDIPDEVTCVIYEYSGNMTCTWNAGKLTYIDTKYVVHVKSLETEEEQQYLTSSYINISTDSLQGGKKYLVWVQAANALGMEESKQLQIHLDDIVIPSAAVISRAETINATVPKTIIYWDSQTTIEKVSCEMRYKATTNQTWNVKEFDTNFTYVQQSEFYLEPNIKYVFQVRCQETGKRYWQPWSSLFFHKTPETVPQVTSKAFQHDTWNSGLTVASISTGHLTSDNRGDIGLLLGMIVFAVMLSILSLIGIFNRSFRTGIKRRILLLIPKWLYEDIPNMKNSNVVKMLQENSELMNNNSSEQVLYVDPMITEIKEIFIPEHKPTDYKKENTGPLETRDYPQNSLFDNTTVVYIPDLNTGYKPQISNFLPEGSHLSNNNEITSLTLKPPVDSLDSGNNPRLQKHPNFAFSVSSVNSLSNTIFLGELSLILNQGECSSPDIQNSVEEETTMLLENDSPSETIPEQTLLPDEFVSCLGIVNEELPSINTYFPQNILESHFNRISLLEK
The experiment can be described thus: Inhibition of interleukin-23 binding to human interleukin-23 receptor incubated for 2 hrs by competitive binding ELISA. For orientation: An ELISA detects its analyte on a solid surface through an enzyme-linked reagent.
The compound `CC(=O)N[C@@H](CS)C(=O)N[C@@H](C)C(=O)N[C@@H](CC(=O)O)C(=O)N[C@@H](Cc1c[nH]c2ccccc12)C(=O)N[C@H](C(=O)N[C@@H](CS)C(=O)N[C@@H](Cc1ccc(O)cc1)C(=O)N[C@@H](Cc1cccc2ccccc12)C(=O)N[C@@H](Cc1cnc[nH]1)C(=O)NC(C)(C)C(=O)N[C@@H](Cc1ccccc1)C(=O)NCC(N)=O)C(C)C` returned an IC50 of over 1000 nM.

Take `CC(=O)N[C@@H](CS)C(=O)N[C@@H](CCC(=O)O)C(=O)N[C@@H](CC(=O)O)C(=O)N[C@@H](Cc1c[nH]c2ccccc12)C(=O)N[C@@H](CCCCN)C(=O)N[C@@H](CS)C(=O)N[C@@H](Cc1ccc(O)cc1)C(=O)N[C@@H](Cc1c[nH]c2ccccc12)C(=O)N[C@@H](Cc1cnc[nH]1)C(=O)N[C@@H](CCCCN)C(=O)N[C@@H](Cc1ccc(O)cc1)C(=O)NCC(N)=O` (Ac-CEDWKCYWHKYG-NH2): the IC50 is under 500 nM.

Regarding `CC(=O)N[C@@H](CS)C(=O)N[C@@H](CCCNC(=N)N)C(=O)N[C@H](C(=O)N[C@@H](Cc1c[nH]c2ccccc12)C(=O)N[C@@H](CCC(=O)O)C(=O)N[C@@H](CS)C(=O)N[C@@H](Cc1ccc(O)cc1)C(=O)N[C@@H](Cc1c[nH]c2ccccc12)C(=O)N[C@@H](Cc1cnc[nH]1)C(=O)N[C@@H](CCC(=O)O)C(=O)N[C@@H](CCC(N)=O)C(=O)N[C@@H](CO)C(N)=O)[C@@H](C)O` (Ac-CRTWECYWHEQS-NH2), the IC50 was under 500 nM.

In turn, `CC[C@H](C)[C@H](NC(=O)[C@H](Cc1cnc[nH]1)NC(=O)[C@H](Cc1c[nH]c2ccccc12)NC(=O)[C@H](Cc1ccc(O)cc1)NC(=O)[C@H](CS)NC(=O)[C@H](CCCCN)NC(=O)[C@H](Cc1c[nH]c2ccccc12)NC(=O)[C@H](CC(=O)O)NC(=O)[C@H](CCCCN)NC(=O)[C@@H](N)CS)C(=O)N[C@@H](Cc1ccc(O)cc1)C(=O)NCC(N)=O` (H-CKDWKCYWHIYG-NH2) registered an IC50 of over 1000 nM.

Take `CC(=O)N[C@@H](C)C(=O)N[C@H](C(=O)N[C@@H](CC(=O)O)C(=O)N[C@@H](Cc1c[nH]c2ccccc12)C(=O)N[C@H](C(=O)N[C@@H](CS)C(=O)N[C@@H](Cc1ccc(O)cc1)C(=O)N[C@@H](Cc1c[nH]c2ccccc12)C(=O)N[C@@H](CCCNC(=N)N)C(=O)N[C@@H](CCCCN)C(=O)N[C@@H](Cc1ccccc1)C(=O)NCC(=O)NCCOCC(=O)N[C@H](CCCCN)C(N)=O)C(C)C)C(C)(C)S`: the IC50 was in the range of 100 to 1000 nM. The compound `CC(=O)N[C@@H](CS)C(=O)N[C@@H](CCC(N)=O)C(=O)N[C@H](C(=O)N[C@@H](Cc1c[nH]c2ccccc12)C(=O)N[C@@H](CCC(N)=O)C(=O)N[C@@H](CS)C(=O)N[C@@H](Cc1ccc(O)cc1)C(=O)N[C@@H](Cc1c[nH]c2ccccc12)C(=O)N[C@@H](CC1CCCC1)C(=O)N[C@@H](CCC(=O)O)C(=O)N[C@@H](CC(N)=O)C(=O)NCC(=O)NCCOCC(=O)N[C@H](CCCCN)C(N)=O)[C@@H](C)O` returned an IC50 of under 500 nM. With `CC(=O)N[C@@H](CS)C(=O)N[C@@H](CCC(N)=O)C(=O)N[C@H](C(=O)N[C@@H](Cc1c[nH]c2ccccc12)C(=O)N[C@@H](CCC(N)=O)C(=O)N[C@@H](CS)C(=O)N[C@@H](Cc1ccc(O)cc1)C(=O)N[C@@H](Cc1c[nH]c2ccccc12)C(=O)N[C@@H](CCONC(=N)N)C(=O)N[C@@H](CCC(=O)O)C(=O)N[C@@H](CC(N)=O)C(=O)NCC(=O)NCCOCC(=O)N[C@H](CCCCN)C(N)=O)[C@@H](C)O` the figure was under 500 nM; with `CC(=O)N[C@@H](CS)C(=O)N[C@@H](C)C(=O)N[C@@H](CC(=O)O)C(=O)N[C@@H](Cc1c[nH]c2ccccc12)C(=O)N[C@H](C(=O)N[C@@H](CS)C(=O)N[C@@H](Cc1ccc(O)cc1)C(=O)N[C@@H](Cc1c[nH]c2ccccc12)C(=O)N[C@@H](Cc1cnc[nH]1)C(=O)N[C@@H](CCCNC(=N)N)C(=O)N[C@@H](CO)C(=O)N[C@H](C(=O)NCC(=O)NCC(=O)N[C@@H](CCC(N)=O)C(=O)N[C@@H](Cc1cnc[nH]1)C(N)=O)[C@@H](C)O)C(C)C` (Ac-CADWVCYWHRSTGGQH-NH2), 500 to 1000 nM. With `C[C@@H](O)[C@H](NC(=O)[C@H](CCC(=O)O)NC(=O)[C@@H](N)CS)C(=O)N[C@@H](Cc1c[nH]c2ccccc12)C(=O)N[C@@H](CCC(=O)O)C(=O)N[C@@H](CS)C(=O)N[C@@H](Cc1ccc(O)cc1)C(=O)N[C@@H](Cc1c[nH]c2ccccc12)C(=O)N[C@@H](Cc1cnc[nH]1)C(=O)N[C@@H](CO)C(=O)N[C@@H](Cc1ccccc1)C(=O)N[C@@H](CO)C(N)=O` (H-CETWECYWHSFS-NH2) the figure was over 1000 nM.

Compound `CC(=O)N[C@@H](CS)C(=O)N[C@@H](C)C(=O)N[C@@H](CC(=O)O)C(=O)N[C@@H](Cc1c[nH]c2ccccc12)C(=O)N[C@H](C(=O)N[C@@H](CS)C(=O)N[C@@H](Cc1ccc(O)cc1)C(=O)N[C@@H](Cc1c[nH]c2ccccc12)C(=O)N[C@@H](Cc1cnc[nH]1)C(=O)N[C@@H](CCCCNC(=O)COCC(=O)NCCCC[C@H](NC(=O)[C@H](Cc1cnc[nH]1)NC(=O)[C@H](Cc1c[nH]c2ccccc12)NC(=O)[C@H](Cc1ccc(O)cc1)NC(=O)[C@H](CS)NC(=O)[C@@H](NC(=O)[C@H](Cc1c[nH]c2ccccc12)NC(=O)[C@H](CC(=O)O)NC(=O)[C@H](C)NC(=O)[C@H](CS)NC(C)=O)C(C)C)C(=O)N[C@@H](Cc1ccccc1)C(=O)NCC(=O)O)C(=O)N[C@@H](Cc1ccccc1)C(=O)NCC(=O)O)C(C)C` had a 50% inhibitory concentration (IC50) of over 10000 nM. With `C[C@H](NC(=O)[C@@H](N)CS)C(=O)N[C@@H](CC(=O)O)C(=O)N[C@@H](Cc1c[nH]c2ccccc12)C(=O)N(C)CC(=O)N[C@@H](CS)C(=O)N[C@@H](Cc1ccc(O)cc1)C(=O)N[C@@H](Cc1cccc2ccccc12)C(=O)N[C@@H](Cc1cnc[nH]1)C(=O)N[C@H](C(=O)N[C@@H](Cc1ccccc1)C(=O)O)[C@@H](C)O`, the IC50 is over 1000 nM. For `CC(=O)N[C@@H](CS)C(=O)N[C@@H](CCC(N)=O)C(=O)N[C@@H](CC(=O)O)C(=O)N[C@@H](Cc1c[nH]c2ccccc12)C(=O)N[C@@H](CCC(N)=O)C(=O)N[C@@H](CS)C(=O)N[C@@H](Cc1ccc(O)cc1)C(=O)N[C@@H](Cc1c[nH]c2ccccc12)C(=O)N[C@@H](CCCNC(=N)N)C(=O)N[C@@H](CCC(=O)O)C(=O)N[C@@H](CC(N)=O)C(=O)NCC(=O)NCCOCC(=O)N[C@H](CCCCN)C(N)=O`, the IC50 was under 500 nM. With `CC(=O)N[C@@H](CS)C(=O)N[C@@H](CCC(N)=O)C(=O)N[C@H](C(=O)N[C@@H](Cc1c[nH]c2ccccc12)C(=O)N[C@@H](CCC(N)=O)C(=O)N[C@@H](CS)C(=O)N1Cc2ccccc2C[C@H]1C(=O)N[C@@H](Cc1c[nH]c2ccccc12)C(=O)N[C@@H](CCC(C)C)C(=O)N[C@@H](CCC(=O)O)C(=O)N[C@@H](CC(N)=O)C(=O)NCC(N)=O)[C@@H](C)O` the figure was over 30000 nM; with `CC(=O)N[C@H]1CCSC[C@@H](C(=O)N[C@@H](Cc2ccc(OCCN)cc2)C(=O)N[C@@H](Cc2ccc3ccccc3c2)C(=O)N[C@@](C)(CCCCN)C(=O)N[C@@H](CCC(=O)O)C(=O)N[C@@H](CC(N)=O)C(=O)NCC(N)=O)NC(=O)[C@H](CCC(N)=O)NC(=O)[C@H](c2ccc(OCCN)cc2)NC(=O)[C@H]([C@@H](C)O)NC(=O)[C@H](CCC(N)=O)NC1=O`, over 3000 nM; with `CC(=O)N[C@@H](C)C(=O)N[C@@H](CS)C(=O)N[C@@H](CC(=O)O)C(=O)N[C@@H](Cc1c[nH]c2ccccc12)C(=O)N[C@H](C(=O)N[C@H](C(=O)N[C@@H](Cc1ccc(O)cc1)C(=O)N[C@@H](Cc1c[nH]c2ccccc12)C(=O)N[C@@H](CCCNC(=N)N)C(=O)N[C@@H](CCCCN)C(=O)N[C@@H](Cc1ccccc1)C(=O)NCC(=O)NCCOCC(=O)N[C@H](CCCCN)C(N)=O)C(C)(C)S)C(C)C`, 1000 to 10000 nM.

The IC50 is the midpoint of a concentration-inhibition curve. Read a high IC50 as lower potency.
